Measurements: patent US9192559B2, “Compositions” (Givaudan SA, priority 2006, dated 2015)

Assays:
A. niger spores = experiment: Activity against A. niger spores in skin cream Cremor basalis; type: cell-based, Aspergillus niger
Experimental: (§1) A preservative-free oil-in-water emulsion skin cream is used. Test samples of cream are made up to contain different amounts of diol compounds and/or benzaldehyde derivatives. The diol compound and the benzaldehyde derivatives is added to an aliquot of 10 g of the cream in 50 ml tubes in a concentration as shown in the table below. After addition of the preservative/preservative enhancer, the cream is thoroughly mixed to achieve a homogeneous distribution. The cream is then stored for 1-3 days to equilibrate at room temperature (in order to achieve a homogenous partitioning of compounds between oil and water phase).
(§2) For testing of sporicidal effect, to each sample 100 μl of a spore suspension of Aspergillus niger ATCC 16404 containing 3×10^7 spores/ml (prepared as described in example 1) is added.
(§3) After regular test intervals, samples of 1 g cream are removed and added to 20 ml of a neutralizer solution containing 0.2% lecithin, 2% Tween 80 and 0.5% NaCl. These dilutions are vigorously shaken for 10 min until the cream is dissolved, and then aliquots of this solution are spread plated on potato dextrose agar containing 0.2% Tween 80. After 48 h to 72 h the number of surviving colony forming units (and therefore surviving spores) are counted.
The example is performed as described in example 2 except for the following changes:
The preservative-free cosmetic cream for application to the human skin is Cremor basalis (commercially available from Fagron GmbH, Barsbüttel, Germany).

[1] = system: Aspergillus niger ATCC 16404 spores; experiment: Sporicidal effect of test compounds in water; type: cell-based; details: 0.1% test compound in water; for Sporicidal effect (reduction of spore counts), in words: 7 days
Experimental: Aspergillus niger ATCC 16404 spores are added to water to obtain a density of 3×10^5 spores/ml.
In order to prepare the spores, the test strain is grown for 5 days on potato dextrose agar at room temperature. The spores are harvested with a solution containing 0.1% Tween 80, peptone 0.1% and NaCl 0.85% and the spore concentration is adjusted to the density indicated above.
Test compounds are dissolved in dipropyleneglycol to a concentration of 20%.
These stock solutions are added to 10 ml aliquots of the spore suspension to obtain a final concentration of the test compounds of 0.1%. The sporicidal effect is shown by a reduction of spore counts after 7 days.
The reduction factor is determined as follows. Aliquots of the above prepared suspension of microorganisms (here: spore suspension prepared as described above) are plated on a suitable agar medium (see above) and the developing colonies are counted both for samples with test compound and for a negative probe (water). The count of the negative control is divided by the count of the test compound and thereby the reduction factor is determined. A negative control (water) accordingly has a reduction factor of 1 (no effect on the microorganism).

[2] = system: Aspergillus niger ATCC 16404 spores; experiment: Sporicidal activity in a preservative-free oil-in-water emulsion skin cream; type: cell-based; details: 0.1% 4-hydroxybenzaldehyde, 0% diol, listed as benzaldehyde derivative
Experimental: as §1, §2, §3
The count of the negative control is divided by the count of the probe and thereby the reduction factor is determined.

With `CCCCCCC(O)CO` (centres unmarked) [1,2-Octandiol, 1,2-octanediol] the “Reduction factor fungal spores, 7d” value (A. niger spores; preservative 0.25%, no 4-HBA) was 2.2.

In the case of `CC(CO)CO` [2-Methyl-1,3-propandiol, 2-Methyl-1,3-propanediol], the “Reduction factor fungal spores, 7d” value (A. niger spores; preservative 2%, no 4-HBA) is reported as 3.3 and the “Reduction factor fungal spores, 7d” value (A. niger spores; preservative 4%, no 4-HBA) is reported as 25.9.

For `CCCCC(CC)COCC(O)CO` (centres unmarked) [3-(2-ethyl-hexyloxy)-1,2-propandiol, 3-(2-ethylhexyloxy)propane-1,2-diol], the “Reduction factor fungal spores, 7d” value (A. niger spores; preservative 0.25%, no 4-HBA) was 3.9 and the “Reduction factor fungal spores, 7d” value (A. niger spores; preservative 0.5%, no 4-HBA) was 57.6.

`O=Cc1ccc(O)cc1` [4-hydroxybenzaldehyde] was tested, and the “Sporicidal effect (reduction of spore counts), in words” value [1] was “No significant reduction of spore counts”, the “reduction factor 7d fungal spores” value [2] was “no sporicidal effect” and the “Reduction factor fungal spores, 7d” value (A. niger spores; 0.5% 4-hydroxybenzaldehyde on its own) was 57.6. The “Reduction factor fungal spores, 7d” value (A. niger spores; no added diol, 0.125% 4-HBA) was 5.5.

`COc1ccc(C=O)cc1` [4-methoxy-benzaldehyde] was tested, and the “Sporicidal effect (reduction of spore counts), in words” value [1] was “No significant reduction of spore counts”.

For `C=CCCCCCCCCO` [9-decenol], the “Sporicidal effect (reduction of spore counts), in words” value [1] was “significant sporicidal effect”.

`CC(C)c1ccc(CO)cc1` [Cuminic alcohol] was tested, and the Spores/ml ([1]; after 7 days) was >1.2 × 10^5 Spores/ml and the Reduction factor ([1]; after 7 days, count of negative control / count of test compound) was less than 2.

With `CC(CC=O)CCc1ccccc1` (centres unmarked) [Mefranal, 3-methyl-5-phenylpentanal] the “Sporicidal effect (reduction of spore counts), in words” value [1] was “significant sporicidal effect”.
